Read-outs that look alike come from different tables or passages of the source.
Legend:
[1] = biological target: T1, RORγt (Homo sapiens, UniProt P51449); experiment: Cofactor recruitment test (Alpha Screen, biotinylated SRC-1 peptide); type: biochemical; conditions: read-out: signal value inhibitory rate (%) at test compound 1 μM
T1 sequence (P51449 1-497 isoform P51449-2): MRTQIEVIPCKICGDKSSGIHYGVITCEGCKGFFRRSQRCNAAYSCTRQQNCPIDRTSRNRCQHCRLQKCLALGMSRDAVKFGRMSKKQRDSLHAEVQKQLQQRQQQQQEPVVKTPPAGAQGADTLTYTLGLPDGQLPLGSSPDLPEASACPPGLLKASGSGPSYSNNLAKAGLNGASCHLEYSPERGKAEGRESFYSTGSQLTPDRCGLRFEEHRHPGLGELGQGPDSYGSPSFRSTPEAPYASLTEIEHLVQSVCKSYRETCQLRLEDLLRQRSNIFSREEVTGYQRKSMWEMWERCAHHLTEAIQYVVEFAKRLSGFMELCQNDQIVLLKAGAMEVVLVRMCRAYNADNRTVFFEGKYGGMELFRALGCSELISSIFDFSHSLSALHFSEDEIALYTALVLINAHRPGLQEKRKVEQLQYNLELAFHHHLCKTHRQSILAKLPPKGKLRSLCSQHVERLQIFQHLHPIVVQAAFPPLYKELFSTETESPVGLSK
Procedure: Cofactor Recruitment Test
Cofactor recruitment test was performed by Alpha Screen (Histidine Detection Kit, PerkinElmer) method. First, a test compound was diluted with an assay buffer (50 mM Tris-HCl (pH 7.5), 50 mM KCl, 1 mM DTT, 0.1% BSA) and added to a 384 well plate by 5 μL. […] The mixture was stood in a dark place for 1 hr, and the signal value was measured by Envision (PerkinElmer).

[2] = biological target: T1, RORγt; experiment: RORγt binding test (TR-FRET, fluorescent-labeled cholesterol); conditions: read-out: binding inhibitory rate (%) of fluorescent-labeled cholesterol to RORγt at test compound 1 μM
In short: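 His-tagged RORγt and BODIPY-cholesterol were incubated with compound for 20 min at room temperature in Tris-HCl pH 7.5, 100 mM NaCl, 1 mM DTT and 0.1% BSA. Terbium anti-His antibody was then added for a further 20 min.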

[3] = test system: IL-17A gene expression; experiment: Effect on IL-23-induced IL-17A gene expression in mice; type: in vivo; conditions: Balb/c mice, ear tissue 24 hr after intradermal IL-23; 100 mg/kg orally 30 min before and 8 hr after IL-23; versus the negative control group
Procedure: Effect on IL-23-Induced IL-17A Gene Expression in Mice
A mouse IL-23 solution (500 ng/10 μL, prepared by Takeda Pharmaceutical Company Limited) or PBS (10 μL, negative control group) was administered intradermally in the ear of Balb/c mice (Charles River Japan, male, 7 weeks old). Twenty-four hr after administration, the ear was resected under isoflurane anesthesia. The test compound was suspended in 0.5% methylcellulose and administered orally 30 min before and 8 hr after IL-23 administration.
RNA extraction from the ear tissue and quantitative PCR were performed as follows. Specifically, ear tissue 5 mm in diameter was punched from an area of the resected ear centering on the IL-23 injection site, and the tissue was immersed in RNAlater (QIAGEN) for at least 18 hr. The RNAlater-treated ear tissue was homogenized in 350 μL of RLT buffer (RNeasy mini kit, QIAGEN) and treated (55° C., 10 min) with Proteinase K (QIAGEN). Total RNA was then extracted according to the RNeasy mini kit protocol. The RNA thus obtained was then reverse transcribed into cDNA using the High-Capacity RNA-to-cDNA kit (Applied Biosystems), and the amount of each cytokine expressions was measured by real-time PCR (Viia7™, Applied Biosystems). The PCR buffer used was TaqMan Fast Advanced Master Mix (Applied Biosystems), and TaqMan Gene Expression Assays (Applied Biosystems) Mm00439618 m1 (IL-17A) and 4352341E (β-actin) were used for cytokine gene detection. The IL-17A gene expression level was normalized to the β-actin gene expression level, and the percent inhibition of IL-17A gene expression with the test compound was then calculated.
The results obtained with the above-described method (percent inhibition of IL-17A gene expression with oral administration of the test compound) are shown in Table 3.

[4] = biological target: T1, RORγt; experiment: Jurkat reporter test (human IL-17 ROR response element luciferase reporter); type: cell-based; conditions: read-out: luminescence level inhibitory rate (%) at test compound 3 μM
In short: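 Jurkat cells were electroporated (1350 V, 10 ms, 3 pulses) with reporter constructs, then cultured overnight with compound in RPMI containing 10% lipid-reduced FCS, 10 mM HEPES pH 7.5 and 5 μM lovastatin. Luciferase was quantified by Bright-Glo luminescence after 10 min at room temperature.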

[5] = test system: mouse model of IL-23-induced psoriasis; experiment: Effect in a mouse model of IL-23-induced psoriasis; type: in vivo; conditions: Balb/c mice, 100 mg/kg orally twice daily, versus the negative control group
Procedure: Effect in a Mouse Model of IL-23-Induced Psoriasis
Mouse IL-23 (500 ng/15 μL, R&D) or PBS (15 μL, negative control group) was administered intradermally in the ear of Balb/c mice (Charles River Japan, male, 7 weeks old) 5 times every other days. Seven hr after IL-23 administration at 8 days after the initial administration (final administration), the mice were anesthetized with isoflurane, and ear thickness was measured with calipers. After the ear thickness was measured, the ear was resected, the tissue 8 mm in diameter was punched from an area centering on the IL-23 injection site, and the tissue was weighed. […]
The change in ear thickness in this model was evaluated by calculating the difference in measured thickness between before IL-23 administration and 7 hr after the final IL-23 administration.
The amount of IL-17 in the ear tissue was performed as follows. […] The homogenized solution was centrifuged, and the amount of IL-17 in the supernatant was measured using ELISA kit (R&D), and the amount of protein in the supernatant was measured using pierce BCA protein assay kit (Thermo scientific). The amount of IL-17 in each ear tissue was normalized to the amount of protein, and the percent inhibition of IL-17A production with the test compound was then calculated. […]

For `COCc1ccc([C@@H](NC(=O)Cc2cc(O)no2)C(=O)Nc2ccc(C(C)(C)C)c(F)c2)cc1` [Example 106, (2R)—N-(4-tert-butyl-3-fluorophenyl)-2-(((3-hydroxy-1,2-oxazol-5-yl)acetyl)amino)-2-(4-(methoxymethyl)phenyl)acetamide], the inhibition at 1 µM [1] was 88%, the inhibition at 1 µM [2] was 103% and the “percent inhibition of IL-17A gene expression” value [3] was 43%. The inhibition at 3 µM ([4]; test compound 3 μM, Jurkat cells) was 99.8%.

In the case of `COc1ccc([C@H](C(=O)Nc2ccc([Si](C)(C)C)cc2)N(C)C(=O)c2cc(O)no2)cc1` [Example 14, 3-hydroxy-N-((1R)-1-(4-methoxyphenyl)-2-oxo-2-((4-(trimethylsilyl)phenyl)amino)ethyl)-N-methyl-1,2-oxazole-5-carboxamide], the “percent inhibition of IL-17A gene expression” value [3] is reported as 53%.

In the case of `COc1ccc([C@H](C(=O)Nc2cc(F)c([Si](C)(C)C)c(F)c2)N(C)C(=O)c2cc(O)no2)cc1` [Example 23, N-((1R)-2-((3,5-difluoro-4-(trimethylsilyl)phenyl)amino)-1-(4-methoxyphenyl)-2-oxoethyl)-3-hydroxy-N-methyl-1,2-oxazole-5-carboxamide], the “percent inhibition of IL-17A gene expression” value [3] is reported as 71%.

For `COc1ccc([C@H](C(=O)Nc2ccc([Si](C)(C)C)c(F)c2)N(C)C(=O)c2cc(O)no2)cc1` [Example 24, N-((1R)-2-((3-fluoro-4-(trimethylsilyl)phenyl)amino)-1-(4-methoxyphenyl)-2-oxoethyl)-3-hydroxy-N-methyl-1,2-oxazole-5-carboxamide], the inhibition at 1 µM [1] was 95.3%, the inhibition at 1 µM [2] was 102% and the “percent inhibition of ear thickness” value ([5]; IL-23 intradermally in the ear 5 times every other day) was 76%. For the same compound, the “percent inhibition of IL-17 production” value ([5]; ear tissue, ELISA normalized to protein) was 96%, the “percent inhibition of IL-17A gene expression” value [3] was 65% and the inhibition at 3 µM ([4]; Jurkat) was 100%.

In the case of `COCc1ccc(C(NC(=O)N2CCC(O)C2)C(=O)Nc2ccc([Si](C)(C)C)c(F)c2)cc1` (stereo not drawn) [Example 33, N-(2-((3-fluoro-4-(trimethylsilyl)phenyl)amino)-1-(4-(methoxymethyl)phenyl)-2-oxoethyl)-3-hydroxypyrrolidine-1-carboxamide], the inhibition at 1 µM [1] is reported as 97.7%, the inhibition at 1 µM [2] is reported as 101% and the inhibition at 3 µM ([4]; Jurkat) is reported as 98.4%.

`COCc1ccc([C@@H](NC(=O)c2cc(O)no2)C(=O)Nc2cc(F)c([Si](C)(C)C)c(F)c2)cc1` [Example 82, N-((1R)-2-((3,5-difluoro-4-(trimethylsilyl)phenyl)amino)-1-(4-(methoxymethyl)phenyl)-2-oxoethyl)-3-hydroxy-1,2-oxazole-5-carboxamide] gave an inhibition at 1 µM [1] of 96.8%, an inhibition at 1 µM [2] of 103% and an inhibition at 3 µM ([4]; Jurkat) of 97%.

In the case of `CCC(=O)N[C@@H](C(=O)Nc1ccc([Si](C)(C)C)c(F)c1)c1ccc(COC)cc1` [Example 79, N-((1R)-2-((3-fluoro-4-(trimethylsilyl)phenyl)amino)-1-(4-(methoxymethyl)phenyl)-2-oxoethyl)propanamide], the inhibition at 1 µM [1] is reported as 93%, the inhibition at 1 µM [2] is reported as 103% and the inhibition at 3 µM ([4]; Jurkat) is reported as 98.4%.

Compound `COCc1ccc([C@@H](NC(=O)CCS(C)(=O)=O)C(=O)Nc2ccc([Si](C)(C)C)c(F)c2)cc1` [Example 80, N-((1R)-2-((3-fluoro-4-(trimethylsilyl)phenyl)amino)-1-(4-(methoxymethyl)phenyl)-2-oxoethyl)-3-(methylsulfonyl)propanamide] has an inhibition at 1 µM [1] of 93.8%, an inhibition at 1 µM [2] of 102% and an inhibition at 3 µM ([4]; Jurkat) of 100%.

Compound `COc1ccc(C(NC(=O)C2CNC(=O)C2)C(=O)Nc2cc(F)c([Si](C)(C)C)c(F)c2)cc1` (stereo not drawn) [Example 37, N-(2-((3,5-difluoro-4-(trimethylsilyl)phenyl)amino)-1-(4-methoxyphenyl)-2-oxoethyl)-5-oxopyrrolidine-3-carboxamide] has an inhibition at 1 µM [1] of 93.6%, an inhibition at 1 µM [2] of 101% and an inhibition at 3 µM ([4]; Jurkat) of 98.5%.

`COCc1ccc(C(NC(=O)Cc2cnn(C)c2)C(=O)Nc2ccc([Si](C)(C)C)cc2)cc1` (stereo not drawn) [Example 22, 2-(4-(methoxymethyl)phenyl)-2-(((1-methyl-1H-pyrazol-4-yl)acetyl)amino)-N-(4-(trimethylsilyl)phenyl)acetamide] was tested, and the inhibition at 1 µM [1] was 90.6%, the inhibition at 1 µM [2] was 101% and the inhibition at 3 µM ([4]; Jurkat) was 97.2%.

— patent US11851449B2, “Heterocyclic amide compounds having an RORvt inhibitory action” (TAKEDA PHARMACEUTICAL COMPANY LIMITED, priority 2013, dated 2023)
